In ChEMBL document CHEMBL1142122, “Extending the record of meroditerpenes from Cacospongia marine sponges” (2007):
Values after ≈ are worked out from the molar mass of the structure shown.

Experiments:
Type in all cases: functional
[1] = tested on: Bacillus subtilis; assay: Antimicrobial activity against Bacillus subtilis
[2] = tested on: Escherichia coli; assay: Antimicrobial activity against Escherichia coli
[3] = tested on: Staphylococcus epidermidis; assay: Antimicrobial activity against Staphylococcus epidermidis

`CC1=C(CC/C(C)=C/CC/C(C)=C/Cc2cc(O)ccc2O)C(C)(C)CCC1` [JASPAQUINOL] showed an MIC [1] greater than 400 µg/mL, an MIC [2] greater than 400 µg/mL and an MIC [3] of 5 µg/mL (≈ 13.1 µM).

In the case of `C=C(C)CCC[C@@]1(C)CCC[C@@]2(C)[C@H](Cc3cc(C(=O)O)ccc3O)C(=C)CC[C@H]12`, the MIC [1] is reported as greater than 400 µg/mL, the MIC [2] is reported as greater than 400 µg/mL and the MIC [3] is reported as 2.5 µg/mL (≈ 6.09 µM).

`CC1=C(CC/C(C)=C/CC/C(C)=C/Cc2cc(C(=O)O)ccc2O)C(C)(C)CCC1` [CACOSPONGIN D] showed an MIC [1] greater than 400 µg/mL, an MIC [2] greater than 400 µg/mL and an MIC [3] of 20 µg/mL (≈ 48.7 µM).

For `CC(C)=CCC[C@@]1(C)CCC[C@]2(C)[C@@H](Cc3cc(C(=O)O)ccc3O)C(C)=CC[C@@H]12` [JASPIC ACID], the MIC [1] was greater than 400 µg/mL, the MIC [2] was greater than 400 µg/mL and the MIC [3] was 2.5 µg/mL (≈ 6.09 µM).
